Where two headings read alike, the source gives them in different places.
What was measured:
NS3/NS4 complexes = NS3/NS4 complexes (Hepatitis C virus genotype 1a, UniProt P27958); experiment: NS3/NS4 inhibition activity (IC50); type: biochemical
Excerpt: NS3-NS4 inhibition activity can be determined using known assay methods. For example, NS3/NS4 complexes may be formed and inhibitory concentrations of test compounds determined as described in U.S. Patent Application Publication Number 2007/0054842 paragraph numbers 1497-1509, which is incorporated herein by reference in its entirety. Similarly, hepatitis C replicon EC50 may be determined using known assay methods such as described in U.S. Patent Application Publication Number 2007/0054842 paragraph numbers 1510-1515. Assays may be conducted at ambient temperature (23° C.) in assay buffer containing 50 mM Tris-HCl, pH 7.5, 15% glycerol, 0.6 mM Lauryldimethylamine Oxide (LDAO), 25 μM NS4A peptide, and 10 mM Dithiothreitol (DTT).

hepatitis C replicon = hepatitis C replicon EC50; type: cell-based; conditions: Hepatitis C virus; Table 2; hepatitis C replicon; read-out: EC50
Excerpt: NS3-NS4 inhibition activity can be determined using known assay methods.

Sequence of NS3/NS4 complexes (P27958 1027-1657): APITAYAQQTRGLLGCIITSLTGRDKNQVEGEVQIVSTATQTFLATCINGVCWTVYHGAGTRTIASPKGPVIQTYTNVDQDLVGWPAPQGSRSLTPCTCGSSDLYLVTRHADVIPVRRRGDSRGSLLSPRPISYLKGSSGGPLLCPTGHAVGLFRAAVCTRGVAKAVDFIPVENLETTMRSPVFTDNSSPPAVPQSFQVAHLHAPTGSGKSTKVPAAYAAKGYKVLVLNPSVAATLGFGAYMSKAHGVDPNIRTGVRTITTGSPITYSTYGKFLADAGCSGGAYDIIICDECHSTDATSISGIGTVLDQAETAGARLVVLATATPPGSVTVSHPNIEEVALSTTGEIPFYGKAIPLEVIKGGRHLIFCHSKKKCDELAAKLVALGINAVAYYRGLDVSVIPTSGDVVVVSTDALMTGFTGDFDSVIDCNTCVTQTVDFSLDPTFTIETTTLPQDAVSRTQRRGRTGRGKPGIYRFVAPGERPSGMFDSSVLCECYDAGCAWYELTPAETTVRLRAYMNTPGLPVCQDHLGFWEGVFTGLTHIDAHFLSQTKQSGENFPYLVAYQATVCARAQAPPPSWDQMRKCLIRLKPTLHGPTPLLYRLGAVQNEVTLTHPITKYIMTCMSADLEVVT
Sequence of NS3/NS4 complexes (P27958 1658-1711): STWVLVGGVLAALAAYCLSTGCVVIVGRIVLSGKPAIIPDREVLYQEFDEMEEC

Compound	IC50 (NS3/NS4 complexes; Table 2, read-out: IC50) [nM]	EC50 (hepatitis C replicon) [nM]	IC50 (NS3/NS4 complexes; IC50, Table 3) [nM]	IC50 (NS3/NS4 complexes; Table 3, read-out: IC50) [nM]
O=C1N[C@]2(C(=O)O)C[C@H]2/C=C\CCCCC[C@H](Nc2ccccc2)C(=O)N2C[C@H](Oc3nc4ccccc4s3)C[C@@H]12 [Compound 101]	75 to 500	> 500	–	–
O=C1N[C@]2(C(=O)O)C[C@H]2/C=C\CCCCC[C@H](Nc2cccc(C(F)(F)F)c2)C(=O)N2C[C@H](Oc3nc4ccccc4s3)C[C@@H]12 [Compound 110]	10 to 75	> 500	–	–
CC(C)(C)c1csc(N[C@H]2CCCCC/C=C\[C@@H]3C[C@@]3(C(=O)O)NC(=O)[C@@H]3C[C@@H](Oc4nc5ccccc5s4)CN3C2=O)n1 [Compound 119]	10 to 75	> 500	–	–
O=C1N[C@]2(C(=O)NS(=O)(=O)C3CC3)C[C@H]2/C=C\CCCCC[C@H](Nc2ccccc2)C(=O)N2C[C@H](Oc3nc4ccccc4s3)C[C@@H]12 [Compound 157]	< 10	10 to 75	–	–
COc1ccc2c(O[C@@H]3C[C@H]4C(=O)N[C@]5(C(=O)NS(=O)(=O)C6CC6)C[C@H]5/C=C\CCCCC[C@H](Nc5ccccc5)C(=O)N4C3)cc(-c3ccccc3)nc2c1 [Compound 164]	< 10	< 10	–	–
O=C1N[C@]2(C(=O)NS(=O)(=O)C3CC3)C[C@H]2/C=C\CCCCC[C@H](NCc2ccccc2)C(=O)N2C[C@H](Oc3nc4ccccc4s3)C[C@@H]12 [Compound 197]	< 10	10 to 75	–	–
CC1(S(=O)(=O)NC(=O)[C@@]23C[C@H]2/C=C\CCCCC[C@H](Nc2ccccc2)C(=O)N2C[C@H](Oc4nc5ccccc5s4)C[C@H]2C(=O)N3)CC1 [Compound 213]	< 10	10 to 75	–	–
CC1(S(=O)(=O)NC(=O)[C@@]23C[C@H]2/C=C\CCCCC[C@H](Nc2ccccc2)C(=O)N2C[C@H](Oc4nc5ccc(Br)cc5s4)C[C@H]2C(=O)N3)CC1 [Compound 214]	< 10	75 to 500	–	–
CC1(S(=O)(=O)NC(=O)[C@@]23C[C@H]2/C=C\CCCCC[C@H](Nc2ccccc2)C(=O)N2C[C@H](Oc4nc5ccc(Cl)cc5s4)C[C@H]2C(=O)N3)CC1 [Compound 217]	< 10	75 to 500	–	–
Cc1ccc2nc(O[C@@H]3C[C@H]4C(=O)N[C@]5(C(=O)NS(=O)(=O)C6(C)CC6)C[C@H]5/C=C\CCCCC[C@H](Nc5ccccc5)C(=O)N4C3)sc2c1 [Compound 218]	< 10	75 to 500	–	–
COc1ccc2c(O[C@@H]3C[C@H]4C(=O)N[C@]5(C(=O)NS(=O)(=O)C6(C)CC6)C[C@H]5/C=C\CCCCC[C@H](Nc5ccccc5)C(=O)N4C3)cc(-c3ccccc3)nc2c1 [Compound 220]	< 10	< 10	–	–
CC1(S(=O)(=O)NC(=O)[C@@]23C[C@H]2/C=C\CCCCC[C@H](Nc2ccccc2)C(=O)N2C[C@H](Oc4nccc5ccccc45)C[C@H]2C(=O)N3)CC1 [Compound 221]	< 10	10 to 75	–	–
CC1(S(=O)(=O)NC(=O)[C@@]23C[C@H]2/C=C\CCCCC[C@H](Nc2cccc(C(F)(F)F)c2)C(=O)N2C[C@H](Oc4nc5ccccc5s4)C[C@H]2C(=O)N3)CC1 [Compound 222]	< 10	75 to 500	–	–
CC1(S(=O)(=O)NC(=O)[C@@]23C[C@H]2/C=C\CCCCC[C@H](Nc2cccc(C(F)(F)F)c2)C(=O)N2C[C@H](Oc4nc5ccc(Br)cc5s4)C[C@H]2C(=O)N3)CC1 [Compound 223]	< 10	75 to 500	–	–
CC1(S(=O)(=O)NC(=O)[C@@]23C[C@H]2/C=C\CCCCC[C@H](Nc2cccc(C(F)(F)F)c2)C(=O)N2C[C@H](Oc4nc5ccc(Cl)cc5s4)C[C@H]2C(=O)N3)CC1 [Compound 226]	< 10	75 to 500	–	–
Cc1ccc2nc(O[C@@H]3C[C@H]4C(=O)N[C@]5(C(=O)NS(=O)(=O)C6(C)CC6)C[C@H]5/C=C\CCCCC[C@H](Nc5cccc(C(F)(F)F)c5)C(=O)N4C3)sc2c1 [Compound 227]	< 10	75 to 500	–	–
COc1ccc2c(O[C@@H]3C[C@H]4C(=O)N[C@]5(C(=O)NS(=O)(=O)C6(C)CC6)C[C@H]5/C=C\CCCCC[C@H](Nc5cccc(C(F)(F)F)c5)C(=O)N4C3)cc(-c3ccccc3)nc2c1 [Compound 229]	< 10	< 10	–	–
CC1(S(=O)(=O)NC(=O)[C@@]23C[C@H]2/C=C\CCCCC[C@H](Nc2cccc(C(F)(F)F)c2)C(=O)N2C[C@H](Oc4nccc5ccccc45)C[C@H]2C(=O)N3)CC1 [Compound 230]	< 10	< 10	–	–

Compound	IC50 (NS3/NS4 complexes; Table 2, read-out: IC50) [nM]	EC50 (hepatitis C replicon) [nM]	IC50 (NS3/NS4 complexes; IC50, Table 3) [nM]	IC50 (NS3/NS4 complexes; Table 3, read-out: IC50) [nM]
CC(C)(C)c1csc(N[C@H]2CCCCC/C=C\[C@@H]3C[C@@]3(C(=O)NS(=O)(=O)C3(C)CC3)NC(=O)[C@@H]3C[C@@H](Oc4nc5ccccc5s4)CN3C2=O)n1 [Compound 231]	< 10	10 to 75	–	–
CC1(S(=O)(=O)NC(=O)[C@@]23C[C@H]2/C=C\CCCCC[C@H](Nc2cccc(F)c2)C(=O)N2C[C@H](Oc4nc5ccccc5s4)C[C@H]2C(=O)N3)CC1 [Compound 235]	< 10	10 to 75	–	–
COc1ccc2c(O[C@@H]3C[C@H]4C(=O)N[C@]5(C(=O)NS(=O)(=O)C6(C)CC6)C[C@H]5/C=C\CCCCC[C@H](Nc5cccc(F)c5)C(=O)N4C3)cc(-c3ccccc3)nc2c1 [Compound 242]	< 10	< 10	–	–
CC1(S(=O)(=O)NC(=O)[C@@]23C[C@H]2/C=C\CCCCC[C@H](Nc2cccc(F)c2)C(=O)N2C[C@H](Oc4nccc5ccccc45)C[C@H]2C(=O)N3)CC1 [Compound 243]	< 10	10 to 75	–	–
COc1cccc(N[C@H]2CCCCC/C=C\[C@@H]3C[C@@]3(C(=O)NS(=O)(=O)C3(C)CC3)NC(=O)[C@@H]3C[C@@H](Oc4nc5ccccc5s4)CN3C2=O)c1 [Compound 244]	< 10	10 to 75	–	–
CC1(S(=O)(=O)NC(=O)[C@@]23C[C@H]2/C=C\CCCCC[C@H](NCc2ccccc2)C(=O)N2C[C@H](Oc4nc5ccccc5s4)C[C@H]2C(=O)N3)CC1 [Compound 253]	< 10	10 to 75	–	–
O=C1N[C@]2(C(=O)NOc3ccccc3)C[C@H]2/C=C\CCCCC[C@H](NCc2ccccc2)C(=O)N2C[C@H](Oc3nc4ccccc4s3)C[C@@H]12 [Compound 309]	75 to 500	> 500	–	–
COc1ccc2c(O[C@@H]3C[C@H]4C(=O)N[C@]5(C(=O)NS(=O)(=O)C6(C)CC6)C[C@H]5/C=C\CCCCC[C@H](Nc5cccc(C(N)=O)c5)C(=O)N4C3)cc(-c3nc(C(C)C)cs3)nc2c1C [Compound 483]	–	< 10	–	–
COc1ccc2c(O[C@@H]3C[C@H]4C(=O)N[C@]5(C(=O)NS(=O)(=O)C6(C)CC6)C[C@H]5/C=C\CCCCC[C@H](Nc5cccc(NS(C)(=O)=O)c5)C(=O)N4C3)cc(-c3nc(C(C)C)cs3)nc2c1C [Compound 484]	–	10 to 75	–	–
COc1ccc2c(O[C@@H]3C[C@H]4C(=O)N[C@]5(C(=O)NS(=O)(=O)C6(C)CC6)C[C@H]5/C=C\CCCCC[C@H](Nc5ccc(NC(C)=O)cc5)C(=O)N4C3)cc(-c3nc(C(C)C)cs3)nc2c1C [Compound 485]	–	10 to 75	–	–
CC(=O)O[C@@H]1C[C@H]2C(=O)N[C@]3(C(=O)N4CCC[C@@H]4C(=O)NCc4ccccc4)C[C@H]3/C=C\CCCCC[C@H](NC(=O)OC(C)(C)C)C(=O)N2C1 [Compound 1088]	–	–	> 100	–
CO[C@@H]1C[C@H]2C(=O)N[C@]3(C(=O)N4CCC[C@@H]4C(=O)NCc4ccccc4)C[C@H]3/C=C\CCCCC[C@H](NC(=O)OC(C)(C)C)C(=O)N2C1 [Compound 1089]	–	–	> 100	–
CN(C)C(=O)O[C@@H]1C[C@H]2C(=O)N[C@]3(C(=O)N4CCC[C@@H]4C(=O)NCc4ccccc4)C[C@H]3/C=C\CCCCC[C@H](NC(=O)OC(C)(C)C)C(=O)N2C1 [Compound 1090]	–	–	> 100	–
CC(C)(C)OC(=O)N[C@H]1CCCCC/C=C\[C@@H]2C[C@@]2(C(=O)NS(=O)(=O)CC(=O)Nc2ccccc2)NC(=O)[C@@H]2C[C@@H](O)CN2C1=O [Compound 1092]	–	–	–	> 100
CN(C)C(=O)O[C@@H]1C[C@H]2C(=O)N[C@]3(C(=O)NS(=O)(=O)CC(=O)Nc4ccccc4)C[C@H]3/C=C\CCCCC[C@H](NC(=O)OC(C)(C)C)C(=O)N2C1 [Compound 1095]	–	–	–	> 100
CNC(=O)COc1ccccc1S(=O)(=O)NC(=O)[C@@]12C[C@H]1/C=C\CCCCC[C@H](NC(=O)OC(C)(C)C)C(=O)N1C[C@H](OC(=O)N(C)C)C[C@H]1C(=O)N2 [Compound 1097]	–	–	–	< 10
CC(=O)O[C@@H]1C[C@H]2C(=O)N[C@]3(C(=O)NS(=O)(=O)CC(=O)Nc4ccccc4)C[C@H]3/C=C\CCCCC[C@H](NC(=O)OC(C)(C)C)C(=O)N2C1 [Compound 1098]	–	–	–	> 100
CC(C)n1c(O[C@@H]2C[C@H]3C(=O)N[C@]4(C(=O)NS(=O)(=O)N(C)C)C[C@H]4/C=C\CCCCC[C@H](NC(=O)OC(C)(C)C)C(=O)N3C2)nc2ccncc21 [Compound 1145]	–	–	–	< 10

— patent US8048862B2, “Macrocyclic inhibitors of hepatitis C virus replication” (priority 2008, dated 2011)
